The source of these data is EPA's ToxValDB 9.5 (doi:10.2903/j.efsa.2017.4695).

In one series the test system is Tagia sp. The settings on record: chronic/long-term; duration: 8 weeks; reproduction.
The subject of the next series is Colinus virginianus. The following applies: acute; oral; mortality.
A further series has as its system Rattus norvegicus. The settings on record: acute; oral; mortality.
A further series relates to Folsomia candida. The following applies: chronic/long-term; duration: 4 weeks; mortality.
In the next series the test system is Lepomis macrochirus. The following applies: acute; duration: 96 hours; mortality.
In a further series the test system is Apis mellifera. The following applies: acute, mortality.
A further series concerns Pimephales promelas. The following applies: chronic/long-term; reproduction.
In a further series the test system is Daphnia magna. The settings on record: chronic/long-term; duration: 21 days; reproduction.
The subject of the next series is Bibionidae. The settings on record: chronic/long-term; duration: 28 days; development.
The test system of another series is Oryctolagus sp. The settings on record: developmental; development.
For the next series, the system named is Typhlodromus pyri. Put plainly: LR50; higher = less toxic. The following applies: acute; mortality.
In a further series the test system is Aphidius rhopalosiphi. Kind of series: LR50; higher = less toxic. The following applies: acute; mortality.

Turning to `COc1cc(OC)nc(NC(=O)NS(=O)(=O)c2c(Cl)nc3ccccn23)n1` [Imazosulfuron], the NOEC was determined as 500 mg/kg in the series on Tagia sp.; 1000 mg/kg in the series with Folsomia candida; 2.9 mg/L in the series on Pimephales promelas; 0.84 mg/L in the series with Daphnia magna; 490 µg/L in the series on Bibionidae. Moreover, the LD50 was over 2250 mg/kg-day in the series on Colinus virginianus; over 1000 mg/kg-day with Rattus norvegicus; over 2250 mg/kg-day in the series with Anas platyrhynchos (acute, oral, unspecified, mortality); over 100 µg/piece in the series with Apis mellifera (dermal); over 41.6 µg/piece in the series on Apis mellifera (oral, unspecified). For the same compound, the NOAEL in the series with Anas platyrhynchos (reproductive, other) was found to be 15.9 mg/kg-day; in the series with Oryctolagus sp., 50 mg/kg-day. Further, in the series with Lepomis macrochirus, the LC50 was over 74 µg/mL. For the same compound, the LR50 in the series on Typhlodromus pyri and in the series with Aphidius rhopalosiphi was over 50 g/ha throughout.
